From patent US10689377B2 (Mirati Therapeutics, Inc., priority 2017, dated 2020) come the findings set out here.

This assay deals with KRas G12C (Homo sapiens, UniProt P01116, G12C). In words: Cellular inhibition of KRas G12C measured by Phospho-ERK in NCI-H358 cells. The format is cell-based. Conditions: pERK(Thr202/Tyr204) normalized with GAPDH, NCI-H358 cells, 3 hours; read-out: IC50. The procedure, abridged: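 NCI-H358 cells were allowed to attach for 8-12 hours, then exposed to compounds for 3 hours at 0.5% DMSO final. After formaldehyde fixation and methanol permeabilization, phospho-ERK (Thr202/Tyr204) was detected by in-cell immunofluorescence and normalized to GAPDH; IC50 came from a 4-parameter fit of percent-of-DMSO values.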
Sequence of KRas G12C (P01116 1-188 isoform P01116-2 G12C): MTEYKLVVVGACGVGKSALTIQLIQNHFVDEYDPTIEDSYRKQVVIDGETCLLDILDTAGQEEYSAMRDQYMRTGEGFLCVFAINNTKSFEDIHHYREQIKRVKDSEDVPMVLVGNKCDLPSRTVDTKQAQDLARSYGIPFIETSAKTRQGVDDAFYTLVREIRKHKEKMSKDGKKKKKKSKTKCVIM
As usually defined, the IC50 is the concentration needed to halve the response being measured. Take `C=CC(=O)N1CCN(c2nc(OCCN3CCN(C(C)=O)CC3)nc3c2CCN(c2cc(O)cc4ccccc24)C3)CC1` [Example 37, 1-(4-(2-(2-(4-acetylpiperazin-1-yl)ethoxy)-7-(3-hydroxynaphthalen-1-yl)-5,6,7,8-tetrahydropyrido[3,4-d]pyrimidin-4-yl)piperazin-1-yl)prop-2-en-1-one]: the concentration for half-maximal inhibition (IC50) was > 1000 nM. The same measure for `C=CC(=O)N1CCN(c2nc(OC[C@H]3COCCN3C)nc3c2CCN(c2cccc4ccccc24)C3)CC1CC#N` (stereo partly drawn) [Example 273, 2-(1-acryloyl-4-(2-(((R)-4-methylmorpholin-3-yl)methoxy)-7-(naphthalen-1-yl)-5,6,7,8-tetrahydropyrido[3,4-d]pyrimidin-4-yl)piperazin-2-yl)acetonitrile]: > 1000 nM; for `C=CC(=O)N1CCN(c2nc(OC[C@@H]3CCCC(=O)N3)nc3c2CCN(c2cc(O)cc4ccccc24)C3)CC1` (single isomer, unassigned) [Example 61]: > 1000 nM.

Regarding `C=CC(=O)N1CCN(c2nc(OC[C@H]3CCCN3CC)nc3c2CCN(c2cccc4ccccc24)C3)C[C@@H]1CC#N` [Example 334, 2-[(2S)-4-[2-[[(2R)-1-ethylpyrrolidin-2-yl]methoxy]-7-(1-naphthyl)-6,8-dihydro-5H-pyrido[3,4-d]pyrimidin-4-yl]-1-prop-2-enoyl-piperazin-2-yl]acetonitrile], the IC50 fell in the range of 0.1 to 1000 nM. The same measure for `C=CC(=O)N1C[C@@H](C)N(c2nc(OC[C@@H]3CCCN3C)nc3c2CCN(c2cccc4ccccc24)C3)C[C@@H]1CC#N` [Example 378, 2-((2S,5R)-1-acryloyl-5-methyl-4-(2-(((S)-1-methylpyrrolidin-2-yl)methoxy)-7-(naphthalen-1-yl)-5,6,7,8-tetrahydropyrido[3,4-d]pyrimidin-4-yl)piperazin-2-yl)acetonitrile]: 0.1 to 1000 nM. The same measure for `C=CC(=O)N1CCN(c2nc(OC[C@@H]3CCCN3C)nc3c2CCN(c2ccccc2F)C3)CC1CC#N` (stereo partly drawn) [Example 227, 2-(1-acryloyl-4-(7-(2-fluorophenyl)-2-(((S)-1-methylpyrrolidin-2-yl)methoxy)-5,6,7,8-tetrahydropyrido[3,4-d]pyrimidin-4-yl)piperazin-2-yl)acetonitrile]: 0.1 to 1000 nM; for `C=CC(=O)N1CCN(c2nc(OC[C@@H]3CCCN3C)nc3c2CCN(c2ncccc2C(F)(F)F)C3)CC1CC#N` (some centres unmarked) [Example 241]: > 1000 nM; for `C=CC(=O)N1CCN(c2nc(OC[C@@H]3CCCN3CCOC)nc3c2CCN(c2cccc4ccccc24)C3)CC1CC#N` (stereo partly drawn) [Example 380, 2-(1-acryloyl-4-(2-(((S)-1-(2-methoxyethyl)pyrrolidin-2-yl)methoxy)-7-(naphthalen-1-yl)-5,6,7,8-tetrahydropyrido[3,4-d]pyrimidin-4-yl)piperazin-2-yl)acetonitrile]: 0.1 to 1000 nM. The same measure for `C=CC(=O)N1CCN(c2nc(OC[C@@H]3CCCN3C)nc3c2CCN(c2c(C)ccc(F)c2C)C3)C[C@@H]1CC#N` [Example 349, 2-((S)-1-acryloyl-4-(7-(3-fluoro-2,6-dimethylphenyl)-2-(((S)-1-methylpyrrolidin-2-yl)methoxy)-5,6,7,8-tetrahydropyrido[3,4-d]pyrimidin-4-yl)piperazin-2-yl)acetonitrile]: 0.1 to 1000 nM; for `C=CC(=O)N1CCN(c2nc(OCCCN3CCOCC3)nc3c2CCN(c2cc(C(F)F)cc4ccccc24)C3)CC1` [Example 112, 1-(4-(7-(3-(difluoromethyl)naphthalen-1-yl)-2-(3-morpholinopropoxy)-5,6,7,8-tetrahydropyrido[3,4-d]pyrimidin-4-yl)piperazin-1-yl)prop-2-en-1-one]: > 1000 nM.

As for `C=CC(=O)N1CCN(c2nc(OCCN3C[C@@H]4CC[C@H]3C4)nc3c2CCN(c2cc(O)cc4ccccc24)C3)CC1` [Example 77, 1-(4-(2-(2-((1S,4R)-2-azabicyclo[2.2.1]heptan-2-yl)ethoxy)-7-(3-hydroxynaphthalen-1-yl)-5,6,7,8-tetrahydropyrido[3,4-d]pyrimidin-4-yl)piperazin-1-yl)prop-2-en-1-one], the concentration for half-maximal inhibition (IC50) was 0.1 to 1000 nM.

In the case of `C=CC(=O)N1CCN(c2ncnc3c2CCN(C(CO)c2ccccc2)C3)CC1` (centres unmarked) [Example 71, 1-(4-(7-(2-hydroxy-1-phenylethyl)-5,6,7,8-tetrahydropyrido[3,4-d]pyrimidin-4-yl)piperazin-1-yl)prop-2-en-1-one], the IC50 is > 1000 nM. `C=CC(=O)N1CCN(c2ncnc3c2CCN(c2nc(N)cc4ccccc24)C3)CC1` [Example 54, 1-[4-[7-(3-amino-1-isoquinolyl)-6,8-dihydro-5H-pyrido[3,4-d]pyrimidin-4-yl]piperazin-1-yl]prop-2-en-1-one]: the IC50 is > 1000 nM. The same measure for `Cc1cccc2cccc(N3CCc4c(nc(OC[C@@H]5CCCN5C)nc4N4CCN(C(=O)C5=CC(=O)CC5)[C@@H](CC#N)C4)C3)c12` [Example 497, 2-((S)-4-(7-(8-methylnaphthalen-1-yl)-2-(((S)-1-methylpyrrolidin-2-yl)methoxy)-5,6,7,8-tetrahydropyrido[3,4-d]pyrimidin-4-yl)-1-(3-oxocyclopent-1-ene-1-carbonyl)piperazin-2-yl)acetonitrile]: 0.1 to 1000 nM; for `C=CC(=O)N1CCN(c2nc(OC[C@H]3CCCN3CCO)nc3c2CCN(c2cccc4ccccc24)C3)CC1CC#N` (stereo partly drawn) [Example 304, 2-[4-[2-[[(2R)-1-(2-hydroxyethyl)pyrrolidin-2-yl]methoxy]-7-(1-naphthyl)-6,8-dihydro-5H-pyrido[3,4-d]pyrimidin-4-yl]-1-prop-2-enoyl-piperazin-2-yl]acetonitrile]: 0.1 to 1000 nM. For the molecule `C=CC(=O)N1CCN(c2nc(OCCNC(C)=O)nc3c2CCN(c2cc(O)cc4ccccc24)C3)CC1` [Example 59, N-(2-((4-(4-acryloylpiperazin-1-yl)-7-(3-hydroxynaphthalen-1-yl)-5,6,7,8-tetrahydropyrido[3,4-d]pyrimidin-2-yl)oxy)ethyl)acetamide], the half-inhibitory concentration (IC50) was > 1000 nM. Regarding `C=CC(=O)N1CCN(c2nc(OC[C@@H]3CCCN3C(C)C)nc3c2CCN(c2cccc4ccccc24)C3)C[C@@H]1CC#N` [Example 320, 2-[(2S)-4-[2-[[(2S)-1-isopropylpyrrolidin-2-yl]methoxy]-7-(1-naphthyl)-6,8-dihydro-5H-pyrido[3,4-d]pyrimidin-4-yl]-1-prop-2-enoyl-piperazin-2-yl]acetonitrile], the IC50 fell in the range of 0.1 to 1000 nM. The same measure for `C=CC(=O)N1CCN(c2nc(OCCCN3CCOCC3)nc3c2CCN(c2ccc(O)cc2OC(F)(F)F)C3)CC1` [Example 106, 1-(4-(7-(4-hydroxy-2-(trifluoromethoxy)phenyl)-2-(3-morpholinopropoxy)-5,6,7,8-tetrahydropyrido[3,4-d]pyrimidin-4-yl)piperazin-1-yl)prop-2-en-1-one]: > 1000 nM; for `C=CC(=O)N1CCN(c2nc(O[C@H](C)CN(C)C)nc3c2CCN(c2cc(O)ccc2OC(F)(F)F)C3)CC1` [Example 78, (R)-1-(4-(2-((1-(dimethylamino)propan-2-yl)oxy)-7-(5-hydroxy-2-(trifluoromethoxy)phenyl)-5,6,7,8-tetrahydropyrido[3,4-d]pyrimidin-4-yl)piperazin-1-yl)prop-2-en-1-one]: > 1000 nM. The same measure for `C=CC(=O)N1CCN(c2nc(OCC(O)CO)nc3c2CCN(c2cc(O)cc4ccccc24)C3)CC1` (centres unmarked) [Example 143, 1-[4-[2-(2,3-dihydroxypropoxy)-7-(3-hydroxy-1-naphthyl)-6,8-dihydro-5H-pyrido[3,4-d]pyrimidin-4-yl]piperazin-1-yl]prop-2-en-1-one]: > 1000 nM; for `C=CC(=O)N1CCN(c2nc(OCCCN3C[C@@H]4C[C@H]3CO4)nc3c2CCN(c2c(C)ccc4[nH]ncc24)C3)CC1` [Example 181, 1-(4-(2-(3-((1S,4S)-2-oxa-5-azabicyclo[2.2.1]heptan-5-yl)propoxy)-7-(5-methyl-1H-indazol-4-yl)-5,6,7,8-tetrahydropyrido[3,4-d]pyrimidin-4-yl)piperazin-1-yl)prop-2-en-1-one]: > 1000 nM.

Turning to `C=CC(=O)N1CCN(c2nc(OCCN3CCC(F)(F)C3)nc3c2CCN(c2cc(O)cc4ccccc24)C3)CC1` [Example 139, 1-[4-[2-[2-(3,3-difluoropyrrolidin-1-yl)ethoxy]-7-(3-hydroxy-1-naphthyl)-6,8-dihydro-5H-pyrido[3,4-d]pyrimidin-4-yl]piperazin-1-yl]prop-2-en-1-one], the 50% inhibitory concentration (IC50) was > 1000 nM. On to `C=CC(=O)N1CCN(c2nc(OC[C@H]3CCCN3C)nc3c2CCN(c2cccc4ccccc24)C3)C[C@@H]1CC#N` [Example 441, 2-((S)-1-acryloyl-4-(2-(((R)-1-methylpyrrolidin-2-yl)methoxy)-7-(naphthalen-1-yl)-5,6,7,8-tetrahydropyrido[3,4-d]pyrimidin-4-yl)piperazin-2-yl)acetonitrile], for which the IC50 lay within 0.1 to 1000 nM. For `C=CC(=O)N1CCN(c2nc(OCC3CCN(C4CC4)C3)nc3c2CCN(c2cc(O)cc4ccccc24)C3)CC1` (centres unmarked) [Example 190, 1-(4-(2-((1-cyclopropylpyrrolidin-3-yl)methoxy)-7-(3-hydroxynaphthalen-1-yl)-5,6,7,8-tetrahydropyrido[3,4-d]pyrimidin-4-yl)piperazin-1-yl)prop-2-en-1-one], the IC50 was in the range of 0.1 to 1000 nM.

Take `C=CC(=O)N1CCN(c2nc(OC[C@@H]3CCCN3C)nc3c2CCN(c2cccc(Cl)c2CC)C3)C[C@@H]1CC#N` [Example 337, 2-[(2S)-4-[7-(3-chloro-2-ethyl-phenyl)-2-[[(2S)-1-methylpyrrolidin-2-yl]methoxy]-6,8-dihydro-5H-pyrido[3,4-d]pyrimidin-4-yl]-1-prop-2-enoyl-piperazin-2-yl]acetonitrile]: the IC50 was in the range of 0.1 to 1000 nM. In the case of `C=CC(=O)N1CCN(c2nc(OCCCN(C)C)nc3c2CCN(c2cc(O)cc4ccccc24)C3)CC1` [Example 10, 1-(4-(2-(3-(dimethylamino)propoxy)-7-(3-hydroxynaphthalen-1-yl)-5,6,7,8-tetrahydropyrido[3,4-d]pyrimidin-4-yl)piperazin-1-yl)prop-2-en-1-one], the IC50 was > 1000 nM.
